Laboratory results reported in patent US8163909B2, “Substituted hydroxyethyl amine compounds as beta-secretase modulators and methods of use” (Amgen Inc., priority 2007, dated 2012).
Like-named read-outs stand apart in the source and are kept apart here.

Experiments:
CYP3A4 (CYP3A) = CYP3A4 (CYP3A) (Homo sapiens, UniProt P08684); experiment: in vitro; conditions: microsomes, pH 7.4;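 also: inhibition of CYP3A-mediated 1-hydroxymidazolam formation after 10 min incubation with NADPH, quantified by HPLC MS relative to metabolite produced without test compound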
Sequence of CYP3A4 (CYP3A) (P08684 2-503): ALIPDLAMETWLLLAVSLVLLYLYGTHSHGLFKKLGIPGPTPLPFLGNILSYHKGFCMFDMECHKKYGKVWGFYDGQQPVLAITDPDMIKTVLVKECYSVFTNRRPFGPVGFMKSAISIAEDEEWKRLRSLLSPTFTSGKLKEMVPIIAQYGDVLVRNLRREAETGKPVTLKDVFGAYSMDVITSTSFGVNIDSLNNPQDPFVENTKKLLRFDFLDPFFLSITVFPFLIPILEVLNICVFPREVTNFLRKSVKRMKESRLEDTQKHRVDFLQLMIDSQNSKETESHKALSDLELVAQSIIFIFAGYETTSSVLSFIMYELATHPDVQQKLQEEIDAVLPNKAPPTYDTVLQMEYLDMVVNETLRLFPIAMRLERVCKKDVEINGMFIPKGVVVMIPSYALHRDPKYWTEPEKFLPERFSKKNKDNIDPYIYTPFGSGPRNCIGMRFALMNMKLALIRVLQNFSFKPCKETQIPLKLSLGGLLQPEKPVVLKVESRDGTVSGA

[1] = Microsomal stability assay, rat liver microsomes;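 also: rat liver microsomes (0.25 mg/mL) with about 1 µM compound plus 1 mM NADPH, pH 7.4, 37 °C for 30 min, parent left measured by LC-MS/MS against 0 min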
[2] = tested on: Aβ40 in conditioned medium of cells stably expressing Amyloid Precursor Protein (APP); experiment: In vitro BACE cell-based assay (Aβ40 in conditioned medium, sandwich ELISA); conditions: Homo sapiens;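 also: compounds added as a dilution series, secreted peptide quantified by europium time-resolved fluorescence readout, potency fitted from percent of control versus compound concentration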
[3] = target: Beta Secretase enzyme (BACE) (Homo sapiens, UniProt P56817); experiment: In vitro enzymatic BACE FRET (fluorescence resonance energy transfer) assay; format: biochemical;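 also: fluorescence read after 1 h with 50 nM quenched peptide substrate spanning the BACE cleavage site, in pH 4.2 acetate buffer containing 10% DMSO and nonionic detergent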
Sequence of Beta Secretase enzyme (BACE) (P56817 46-501): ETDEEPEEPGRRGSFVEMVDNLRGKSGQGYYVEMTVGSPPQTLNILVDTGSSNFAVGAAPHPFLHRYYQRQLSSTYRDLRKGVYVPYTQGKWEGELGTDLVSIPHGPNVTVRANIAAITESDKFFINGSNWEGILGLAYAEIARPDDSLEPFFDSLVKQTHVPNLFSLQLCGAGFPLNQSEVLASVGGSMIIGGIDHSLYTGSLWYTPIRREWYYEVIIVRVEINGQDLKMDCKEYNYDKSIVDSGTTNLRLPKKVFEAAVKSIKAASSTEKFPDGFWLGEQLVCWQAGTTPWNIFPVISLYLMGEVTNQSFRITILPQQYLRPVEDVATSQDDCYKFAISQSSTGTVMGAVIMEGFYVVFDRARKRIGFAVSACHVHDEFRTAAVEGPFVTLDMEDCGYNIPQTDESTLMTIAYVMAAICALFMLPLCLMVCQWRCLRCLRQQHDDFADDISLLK

CYP2D6 = CYP2D6 (Homo sapiens, UniProt P10635); experiment: CYP2D6 inhibition assay (bufuralol, pooled human liver microsomes)
Sequence of CYP2D6 (P10635 whole entry): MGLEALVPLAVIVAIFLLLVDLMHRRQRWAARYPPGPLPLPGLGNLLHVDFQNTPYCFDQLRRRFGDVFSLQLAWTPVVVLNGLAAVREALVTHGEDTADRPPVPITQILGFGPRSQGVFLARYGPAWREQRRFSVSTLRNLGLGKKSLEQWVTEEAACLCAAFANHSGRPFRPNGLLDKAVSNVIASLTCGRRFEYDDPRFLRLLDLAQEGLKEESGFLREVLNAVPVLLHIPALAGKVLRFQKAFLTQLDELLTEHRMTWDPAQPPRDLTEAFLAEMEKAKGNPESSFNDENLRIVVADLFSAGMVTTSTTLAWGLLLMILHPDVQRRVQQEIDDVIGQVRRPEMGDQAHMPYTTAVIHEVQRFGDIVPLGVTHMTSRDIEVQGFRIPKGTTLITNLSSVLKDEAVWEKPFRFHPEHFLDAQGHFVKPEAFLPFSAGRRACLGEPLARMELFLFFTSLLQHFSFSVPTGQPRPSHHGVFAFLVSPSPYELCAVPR

[4] = Microsomal stability assay, human liver microsomes;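 also: pooled human liver microsomes at 0.25 mg/mL with 1 µM compound and NADPH at 37 °C, pH 7.4, for 30 min, unchanged parent quantified by LC-MS/MS against the 0 min sample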
[5] = HEK293, HEK cell-based assay IC50, read-out: HEK cell assay
[6] = BACE enzyme assay IC50, read-out: BACE1 FRET assay
[7] = 2D6 IC50 (uM), CYP2D6 inhibition
[8] = HEK293, Table 2, HEK cells, read-out: HEK cell assay
[9] = Table 2, read-out: BACE1 FRET assay
[10] = 2D6 IC50, CYP enzyme inhibition
[11] = HEK293, HEK cells, read-out: HEK cell assay
[12] = BACE enzyme assay, read-out: BACE1 FRET assay
[13] = 2D6 IC50 (uM), CYP enzyme inhibition
[14] = HEK293, HEK cell-based assay, IC50's in uM, read-out: HEK cell assay
[15] = BACE enzyme assay, IC50's in uM, read-out: BACE1 FRET assay
[16] = HEK293, HEK cells, read-out: HEK cell assay (IC50)
[17] = read-out: BACE1 FRET assay (IC50)

Structure (SMILES) | IC50 (CYP3A4 (CYP3A)) [nM] | RLM ([1]; rat liver microsomes) [µL/min/mg] | HLM ([4]; human liver microsomes) [µL/min/mg] | RLM ([1]; rat liver microsomal data) [µL/min/mg] | HLM ([4]; human liver microsomal data) [µL/min/mg] | IC50 [2, 11] [µM] | IC50 [3, 12] [µM] | IC50 (CYP2D6; [13]) [µM] | also measured
CO[C@H](C)C(=O)N[C@@H](Cc1cc(F)cc(F)c1)[C@H](O)CN[C@H]1CC2(CCC2)Oc2c1cc(CC(C)C)nc2-c1nccn1C [compound 704] | ≤ 30 | 44 | 20 | – | – | – | – | – | IC50 [2, 5]: 0.024 µM; IC50 [3, 6]: 0.03 µM; IC50 (CYP2D6; [7]): ≥ 27 µM
CC(=O)N[C@@H](Cc1cc(F)cc(F)c1)[C@H](O)CN[C@H]1CC2(CCC2)Oc2c1cc(CC(C)(C)C)nc2-n1ccnc1 [compound 465] | 100 | – | – | 51.5 | 18.5 | – | – | – | IC50 [2, 8]: 0.032 µM; IC50 [3, 9]: 0.019 µM; IC50 (CYP2D6; [10]): 1 µM
CO[C@H](C)C(=O)N[C@@H](Cc1ccc2c(c1)OCO2)[C@H](O)CN[C@@H]1c2cc(CC(C)(C)C)cnc2OC2(CCC2)[C@H]1F [compound 539] | 100 | – | – | 161 | 61 | 0.147 | 4.77 | 6.5 | –
COCC(=O)N[C@@H](Cc1cccc(Br)c1)[C@H](O)CN[C@H]1CC2(CCC2)Oc2ncc(CC(C)C)cc21 [compound 800] | 200 | – | – | 459 | 921 | – | – | 1.4 | IC50 [2, 14]: 0.013 µM; IC50 [3, 15]: 0.004 µM
CO[C@H](C)C(=O)N[C@@H](Cc1ccc2c(c1)OCO2)[C@H](O)CN[C@H]1CC2(CCC2)Oc2nc3c(cc21)[C@H](C(C)C)CO3 [compound 665] | 200 | 126 | 61 | – | – | – | – | – | IC50 [2, 16]: 0.249 µM; IC50 [3, 17]: 0.927 µM; IC50 (CYP2D6; 2D6 IC50, CYP2D6 inhibition): 4 µM
CC(=S)N[C@@H](Cc1cccc(-c2nccs2)c1)[C@H](O)CN[C@H]1CC2(CCC2)Oc2ncc(CC(C)(C)C)cc21 [compound 793] | 100 | – | – | 60 | 99 | – | – | 0.4 | IC50 [2, 14]: 0.067 µM; IC50 [3, 15]: 0.03 µM
CO[C@@H](C)C(=O)N[C@@H](Cc1ccc2c(c1)OCO2)[C@H](O)CN[C@H]1CC2(CCC2)Oc2ccc(C[C@@H](C)F)cc21 [compound 499] | 300 | – | – | 213 | 156 | 0.473 | 1.36 | 0.7 | –
Cc1csc(CN2CCO[C@H](C(=O)N[C@@H](Cc3ccc(F)cc3)[C@H](O)CN[C@H]3CC4(CCC4)Oc4ncc(CC(C)(C)C)cc43)C2)n1 [compound 734] | 100 | 335 | 543 | – | – | – | – | – | IC50 [2, 5]: 0.014 µM; IC50 [3, 6]: 0.012 µM; IC50 (CYP2D6; [7]): 2.4 µM
CC(C)(C)Cc1cnc2c(c1)[C@@H](NC[C@@H](O)[C@H](Cc1ccc(F)cc1)NC=O)CC1(CCC1)O2 [compound 540] | 1200 | – | – | 347 | 264 | 0.074 | 0.014 | 2.3 | –
CO[C@H](C)C(=O)N[C@@H](Cc1cc(F)cc(F)c1)[C@H](O)CN[C@H]1CC2(CCC2)Oc2c(-c3cnc[nH]3)cc(CC(C)C)cc21 [compound 476] | 600 | – | – | 408 | 329 | – | – | – | IC50 [2, 8]: 0.005 µM; IC50 [3, 9]: 0.028 µM; IC50 (CYP2D6; [10]): 12.3 µM
COCC(=O)N[C@@H](Cc1cc(F)cc(F)c1)[C@H](O)CN[C@H]1CC2(CCC2)Oc2c(-c3ccccc3F)cc(CC(C)(C)C)cc21 [compound 487] | 1600 | – | – | 387 | 394 | 0.118 | 0.015 | 21.4 | –
CC(=O)N[C@@H](Cc1cccc(-n2ccnc2)c1)[C@H](O)CN[C@H]1CC2(CCC2)Oc2ncc(CC(C)(C)C)cc21 [compound 615, N-((1S,2R)-3-(((4′S)-6′-(2,2-dimethylpropyl)-3′,4′-dihydrospiro[cyclobutane-1,2′-pyrano[2,3-b]pyridin]-4′-yl)amino)-2-hydroxy-1-(3-(1H-imidazol-1-yl)benzyl)propyl)acetamide] | 160 | 32 | 59 | – | – | – | – | – | IC50 [2, 16]: 0.007 µM; IC50 [3, 17]: 0.06 µM; IC50 (CYP2D6; 2D6 IC50, CYP2D6 inhibition): 0.16 µM
